Laboratory results from US20020169101A1, “Treatment of sexual dysfunction” (priority 1999, published 2002).
Read-outs that look alike come from different tables or passages of the source.

Legend:
human NMB receptor (BB1) = molecular target: T1, human NMB receptor (BB1) (Homo sapiens, UniProt P28336); assay: BB1 binding assay ([125I][Tyr4]bombesin displacement, CHO-K1 membranes)
T1 construct: expressed in transfected cells; membranes prepared from the cells
Outline: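 Competition against <0.1 nM [125I][Tyr4]bombesin, 60 min for the NMB receptor and 90 min for the GRP receptor, using homogenised membranes of human-receptor-expressing CHO-K1 cells in pH 7.4 Tris buffer. Bound label was filtered and gamma-counted, with 1 μM bombesin as nonspecific. Ki values came from IC50 via Cheng-Prusoff.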

human GRP receptor (BB2) = molecular target: T2, human GRP receptor (BB2) (Homo sapiens, UniProt P30550); assay: BB2 binding assay ([125I][Tyr4]bombesin displacement, CHO-K1 membranes)
T2 construct: expressed in transfected cells; membranes prepared from the cells
T2 sequence (P30550 whole entry): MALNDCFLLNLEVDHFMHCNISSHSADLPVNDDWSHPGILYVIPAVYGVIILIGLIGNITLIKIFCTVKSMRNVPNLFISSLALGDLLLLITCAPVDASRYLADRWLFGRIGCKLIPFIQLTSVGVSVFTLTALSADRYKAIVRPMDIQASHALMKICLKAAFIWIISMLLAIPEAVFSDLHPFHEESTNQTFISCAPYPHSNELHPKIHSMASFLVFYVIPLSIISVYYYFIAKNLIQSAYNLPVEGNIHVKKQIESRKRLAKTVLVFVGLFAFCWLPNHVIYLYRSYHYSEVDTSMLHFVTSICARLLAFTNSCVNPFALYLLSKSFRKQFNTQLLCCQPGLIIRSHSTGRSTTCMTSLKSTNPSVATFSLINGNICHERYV
Description: In the following experiments, measurement of BB1 and BB2 binding was as follows. CHO-K1 cells stably expressing cloned human NMB (for (BB1 assay) and GRP receptors (for BB2 assay) were routinely grown in Ham's F12 culture medium supplemented with 10% foetal calf serum and 2 mM glutamine. For binding experiments, cells were harvested by trypsinization, and stored frozen at −70° C. in Ham's F12 culture medium containing 5% DMSO until required. On the day of use, cells were thawed rapidly, diluted with an excess of culture medium, and centrifuged for 5 minutes at 2000 g. Cells were resuspended in 50 mM Tris-HCl assay buffer (pH 7.4 at 21° C., containing 0.02% BSA, 40 μg/mL bacitracin, 2 μg/mL chymostatin, 4 μg/mL leupeptin, and 2 μM phosphoramidon), counted, and polytronned (setting 5, 10 sec) before centrifuging for 10 minutes at 28,000 g. The final pellet was resuspended in assay buffer to a final cell concentration of 1.5×10^5/mL. For binding assays, […] aliquots of membranes were incubated with [^125I][Tyr^4]bombesin (<0.1 nM) in the presence and absence of test compounds (final assay volume 250 μL) for 60 minutes and 90 minutes for NMB and GRP receptors, respectively. Nonspecific binding was defined by 1 μM bombesin. Assays were terminated by rapid filtration under vacuum onto Whatman GF/C filters presoaked in 0.2% PEI for >2 hours, and washed 50 mM Tris-HCl (pH 6.9 at 21° C.; 6×1 mL). Radioactivity bound was determined using a gamma counter.
All competition data was analysed using nonlinear regression utilizing iterative curve-plotting procedures in Prism® (GraphPad Software Inc., San Diego, USA). IC50 values were corrected to Ki values using the Cheng-Prusoff equation (Cheng Y., Prusoff W. H., Biochem. Pharmacol. 22: 3099-3108, 1973). obtained are listed in Table 1.

[1] = Table 3, N-acyl derivatives of Intermediate III-7
[2] = second 'TABLE 4', N-terminal urethane derivatives of Intermediate III-7

T1 sequence (P28336 whole entry): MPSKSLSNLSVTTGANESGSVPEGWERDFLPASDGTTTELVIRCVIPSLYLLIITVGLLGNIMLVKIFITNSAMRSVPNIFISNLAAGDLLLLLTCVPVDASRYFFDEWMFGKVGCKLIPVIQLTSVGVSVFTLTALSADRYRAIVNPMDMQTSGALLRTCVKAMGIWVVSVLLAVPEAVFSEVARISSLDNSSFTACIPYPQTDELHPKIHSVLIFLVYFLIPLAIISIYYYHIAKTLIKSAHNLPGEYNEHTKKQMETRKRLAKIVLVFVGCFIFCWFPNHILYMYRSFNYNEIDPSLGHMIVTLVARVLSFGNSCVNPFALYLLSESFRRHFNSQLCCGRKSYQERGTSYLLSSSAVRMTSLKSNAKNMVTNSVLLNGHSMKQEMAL

Row | IC50 (human NMB receptor (BB1); [1]) | IC50 (human GRP receptor (BB2); [1]) | IC50 (human NMB receptor (BB1); [2]) | IC50 (human GRP receptor (BB2); [2]) | Structure (SMILES) | other results
1 | 0.343 µM | > 10 µM | – | – | C[C@@](Cc1c[nH]c2ccccc12)(NC(=O)c1ccc([N+](=O)[O-])cc1)C(=O)NCC1(c2ccccn2)CCCCC1 [Example 36, N—{(S)-2-(1H-Indol-3-yl)-1-methyl-1-[(1-pyridin-2-yl-cyclohexylmethyl)-carbamoyl]-ethyl}-4-nitro-benzamide] | –
2 | – | – | – | – | C[C@@](Cc1c[nH]c2ccccc12)(NS(=O)(=O)c1cccc2cccnc12)C(=O)NCC1(c2ccccn2)CCCCC1 [Example 120, (S)-3-(1H-indol-3-yl)-2-methyl-N-(1-pyridin-2-yl-cyclohexylmethyl)-2-(quinoline-8-sulfonylamino)-propionamide] | IC50 (human NMB receptor (BB1)): 0.108 µM; IC50 (human GRP receptor (BB2)): > 10 µM
3 | – | – | 0.085 µM | > 10 µM | C[C@@](Cc1c[nH]c2ccccc12)(NC(=O)OCc1cccc(C#N)c1)C(=O)NCC1(c2ccccn2)CCCCC1 [Example 103, {(S)-2-(1H-Indol-3-yl)-1-methyl-1-[(1-pyridin-2-yl-cyclohexylmethyl)-carbamoyl]-ethyl}-carbamic acid 3-cyano-benzyl ester] | –
4 | 0.817 µM | > 10 µM | – | – | Cc1cccc(CC(=O)N[C@@](C)(Cc2c[nH]c3ccccc23)C(=O)NCC2(c3ccccn3)CCCCC2)c1 [Example 54, (S)-3-(1H-Indol-3-yl)-2-methyl-N-(1-pyridin-2-yl-cyclohexylmethyl)-2-(2-m-tolyl-ethanoylamino)-propionamide] | –
5 | – | – | – | – | Cc1cccc(S(=O)(=O)N[C@@](C)(Cc2c[nH]c3ccccc23)C(=O)NCC2(c3ccccn3)CCCCC2)c1 [Example 131] | IC50 (human NMB receptor (BB1)): 0.393 µM; IC50 (human GRP receptor (BB2)): 1.02 µM
6 | – | – | 0.239 µM | > 10 µM | C[C@@](Cc1c[nH]c2ccccc12)(NC(=O)OCc1cccc2ccccc12)C(=O)NCC1(c2ccccn2)CCCCC1 [Example 87, {(S)-2-(1H-Indol-3-yl)-1-methyl-1-[(1-pyridin-2-yl-cyclohexylmethyl)-carbamoyl]-ethyl}-carbamic acid naphthalen-1-ylmethyl ester] | –
7 | 0.897 µM | 1.49 µM | – | – | C[C@@](Cc1c[nH]c2ccccc12)(NC(=O)c1ccc2ncsc2c1)C(=O)NCC1(c2ccccn2)CCCCC1 [Example 72, Benzothiazole-6-carboxylic acid {(S)-2-(1H-indol-3-yl)-1-methyl-1-[(1-pyridin-2-yl-cyclohexylmethyl)-carbamoyl]-ethyl}-amide] | –
8 | – | – | – | – | COc1ccc(C2(CNC(=O)[C@](C)(Cc3ccccc3)Nc3nc(-c4ccc([N+](=O)[O-])cc4)co3)CCCCC2)nc1 [Example 12, (S)-N-[1-(5-Methoxy-pyridin-2-yl)-cyclohexylmethyl]-2-methyl-2-[4-(4-nitro-phenyl)-oxazol-2-ylamino]-3-phenyl-propionamide] | Ki (human NMB receptor (BB1); Table 1, human NMB receptor binding affinity, Ki from IC50 by Cheng-Prusoff, read-out: NMB Ki): 0.016 µM; Ki (human GRP receptor (BB2); Table 1, human GRP receptor binding affinity, Ki from IC50 by Cheng-Prusoff, read-out: GRP Kj): 2.82 µM
9 | 2.82 µM | > 10 µM | – | – | Cc1cccc(C(=O)N[C@@](C)(Cc2c[nH]c3ccccc23)C(=O)NCC2(c3ccccn3)CCCCC2)n1 [Example 76, 6-Methyl-pyridine-2-carboxylic acid {(S)-2-(1H-indol-3-yl)-1-methyl-1-[(1-pyridin-2-yl-cyclohexylmethyl)-carbamoyl]-ethyl}-amide] | –
10 | – | – | 0.624 µM | > 10 µM | C[C@@](Cc1c[nH]c2ccccc12)(NC(=O)OCc1ccccc1Cl)C(=O)NCC1(c2ccccn2)CCCCC1 [Example 95, {(S)-2-(1H-Indol-3-yl)-1-methyl-1-[(1-pyridin-2-yl-cyclohexylmethyl)-carbamoyl]-ethyl}-carbamic acid 2-chloro-benzyl ester] | –
11 | – | – | – | – | C[C@@](Cc1c[nH]c2ccccc12)(NS(=O)(=O)c1cccc(Cl)c1)C(=O)NCC1(c2ccccn2)CCCCC1 [Example 130] | IC50 (human NMB receptor (BB1)): 0.331 µM; IC50 (human GRP receptor (BB2)): 2.69 µM
12 | 0.944 µM | > 10 µM | – | – | Cc1ccc(CC(=O)N[C@@](C)(Cc2c[nH]c3ccccc23)C(=O)NCC2(c3ccccn3)CCCCC2)cc1 [Example 50, (S)-3-(1H-Indol-3-yl)-2-methyl-N-(1-pyridin-2-yl-cyclohexylmethyl)-2-(2-p-tolyl-ethanoylamino)-propionamide] | –
13 | – | – | – | – | Cc1ccc(S(=O)(=O)N[C@@](C)(Cc2c[nH]c3ccccc23)C(=O)NCC2(c3ccccn3)CCCCC2)cc1Cl [Example 158] | IC50 (human NMB receptor (BB1)): 0.299 µM; IC50 (human GRP receptor (BB2)): 3.94 µM
14 | 2.04 µM | > 10 µM | – | – | C[C@@](Cc1c[nH]c2ccccc12)(NC(=O)c1cccc(C#N)c1)C(=O)NCC1(c2ccccn2)CCCCC1 [Example 38, 3-Cyano-N—{(S)-2-(1H-indol-3-yl)-1-methyl-1-[(1-pyridin-2-yl-cyclohexylmethyl)-carbamoyl]-ethyl}-benzamide] | –
15 | 2.88 µM | > 10 µM | – | – | COc1ccc(C(=O)N[C@@](C)(Cc2c[nH]c3ccccc23)C(=O)NCC2(c3ccccn3)CCCCC2)cc1 [Example 35, N—{(S)-2-(1H-Indol-3-yl)-1-methyl-1-[(1-pyridin-2-yl-cyclohexylmethyl)-carbamoyl]-ethyl}-4-methoxy-benzamide] | –
16 | – | – | 0.041 µM | 0.463 µM | C[C@@](Cc1c[nH]c2ccccc12)(NC(=O)OCc1ccc([N+](=O)[O-])cc1)C(=O)NCC1(c2ccccn2)CCCCC1 [Example 96, {(S)-2-(1H-Indol-3-yl)-1-methyl-1-[(1-pyridin-2-yl-cyclohexylmethyl)-carbamoyl]-ethyl}-carbamic acid 4-nitro-benzyl ester] | –
17 | – | – | 0.202 µM | > 10 µM | C[C@@](Cc1c[nH]c2ccccc12)(NC(=O)OCc1ccc(Cl)c(Cl)c1)C(=O)NCC1(c2ccccn2)CCCCC1 [Example 91, {(S)-2-(1H-Indol-3-yl)-1-methyl-1-[(1-pyridin-2-yl-cyclohexylmethyl)-carbamoyl]-ethyl}-carbamic acid 3,4-dichloro-benzyl ester] | –
18 | – | – | 0.841 µM | > 10 µM | Cc1cccc(COC(=O)N[C@@](C)(Cc2c[nH]c3ccccc23)C(=O)NCC2(c3ccccn3)CCCCC2)c1 [Example 105, {(S)-2-(1H-Indol-3-yl)-1-methyl-1-[(1-pyridin-2-yl-cyclohexylmethyl)-carbamoyl]-ethyl}-carbamic acid 3-methyl-benzyl ester] | –
19 | 2.86 µM | > 10 µM | – | – | COc1cccc(C(=O)N[C@@](C)(Cc2c[nH]c3ccccc23)C(=O)NCC2(c3ccccn3)CCCCC2)c1 [Example 40, N—{(S)-2-(1H-Indol-3-yl)-1-methyl-1-[(1-pyridin-2-yl-cyclohexylmethyl)-carbamoyl]-ethyl}-3-methoxy-benzamide] | –
20 | 3.95 µM | > 10 µM | – | – | C[C@@](Cc1c[nH]c2ccccc12)(NC(=O)c1ccccc1F)C(=O)NCC1(c2ccccn2)CCCCC1 [Example 49, 2-Fluoro-N—{(S)-2-(1H-indol-3-yl)-1-methyl-1-[(1-pyridin-2-yl-cyclohexylmethyl)-carbamoyl]-ethyl}-benzamide] | –
21 | – | – | 0.818 µM | > 10 µM | COc1ccccc1COC(=O)N[C@@](C)(Cc1c[nH]c2ccccc12)C(=O)NCC1(c2ccccn2)CCCCC1 [Example 100, {(S)-2-(1H-Indol-3-yl)-1-methyl-1-[(1-pyridin-2-yl-cyclohexylmethyl)-carbamoyl]-ethyl}-carbamic acid 2-methoxy-benzyl ester] | –
22 | – | – | 0.923 µM | > 10 µM | C[C@@](Cc1c[nH]c2ccccc12)(NC(=O)OCc1ccccc1F)C(=O)NCC1(c2ccccn2)CCCCC1 [Example 94, {(S)-2-(1H-Indol-3-yl)-1-methyl-1-[(1-pyridin-2-yl-cyclohexylmethyl)-carbamoyl]-ethyl}-carbamic acid 2-fluoro-benzyl ester] | –
23 | 1.6 µM | > 10 µM | – | – | C[C@@](Cc1c[nH]c2ccccc12)(NC(=O)c1ccc2cc[nH]c2c1)C(=O)NCC1(c2ccccn2)CCCCC1 [Example 66, 1H-Indole-6-carboxylic acid {(S)-2-(1H-indol-3-yl)-1-methyl-1-[(1-pyridin-2-yl-cyclohexylmethyl)-carbamoyl]-ethyl}-amide] | –
24 | 1.33 µM | 2.48 µM | – | – | COc1ccccc1CC(=O)N[C@@](C)(Cc1c[nH]c2ccccc12)C(=O)NCC1(c2ccccn2)CCCCC1 [Example 85, (S)-3-(1H-Indol-3-yl)-2-[2-(2-methoxy-phenyl)-ethanoylamino]-2-methyl-N-(1-pyridin-2-yl-cyclohexylmethyl)-propionamide] | –
25 | 3.13 µM | > 10 µM | – | – | C[C@@](Cc1c[nH]c2ccccc12)(NC(=O)Cc1ccc(O)cc1)C(=O)NCC1(c2ccccn2)CCCCC1 [Example 52, (S)-2-[2-(4-Hydroxy-phenyl)-ethanoylamino]-3-(1H-indol-3-yl)-2-methyl-N-(1-pyridin-2-yl-cyclohexylmethyl)-propionamide] | –
